# Test results as given in patent US20250144056A1, “ANTIMICROBIAL HOST DEFENSE PEPTIDE-INDUCING COMPOSITIONS AND METHODS OF PRODUCTION AND USE THEREOF” (Board of Regents for the Oklahoma Agricultural and …, priority 2022, published 2025).
# Tests used:
# [1] = system: AvBD2; test: RT-qPCR of AvBD2 in HTC cells; format: cell-based, chicken; conditions: BIX01294 with 2 mM butyrate, 24 h (FIG. 5)
# Experimental: (§1) Culture and stimulation of macrophages. Two different chicken macrophage cell lines, HTC (24) and HD11 (25), were kindly provided by Dr. Narayan C. Rath and Dr. Hyun Lillehoj of USDA-ARS and maintained in RPMI 1640 containing 10% heat-inactivated FBS, 100 U/ml penicillin, and 100 μg/ml streptomycin and subcultured every 3-4 days. After overnight seeding at 1.5×10^6 cells/well in 6-well cell culture plates, cells were treated with different concentrations of each compound for 24 h or with the indicated concentration of each compound for various lengths of time for dose-response and time-course experiments, respectively. […]
# (§2) Total RNA extraction and gene expression analysis. […] Gene expression was performed using reverse transcription-quantitative PCR (RT-qPCR) as previously described (27-29). […] The cDNA was then diluted 10-fold with RNase-free water prior to real-time PCR using QuantiTect SYBR® Green PCR Kit (Qiagen, Valencia, CA) in 10-μl reactions using primers specific for HDP, barrier function, and inflammatory cytokine genes as described (27, 29, 30). […] The fold changes in gene expression in the cells treated with individual compounds or in combinations were calculated relative to the cells treated with an equal volume of RPMI 1640 or DMSO using the ΔΔCt method (31).
# [2] = system: AvBD1; test: RT-qPCR of AvBD1 in HD11 macrophages; format: cell-based, chicken; conditions: HD11 cells, 5 μM compound with 2 mM butyrate, 24 h (FIG. 6, Panel B)
# Experimental: as §1, §2
# [3] = system: AvBD4; test: RT-qPCR of AvBD4 in HTC cells; format: cell-based, chicken; conditions: 2 mM butyrate and at least one concentration of BIX01294, 24 h (FIG. 5)
# Experimental: as §1, §2
# [4] = system: AvBD9 gene promoter; test: HTC/AvBD9-luc luciferase reporter assay; format: cell-based, chicken
# Experimental: Culture and stimulation of a stable HTC/AvBD9-luc luciferase reporter cell line. A stable HTC/AvBD9-luc cell line was generated by cloning a 2.0-Kb AvBD9 gene promoter fragment into a lentiviral luciferase reporter vector, pGreenFire1-mCMV-Puro (System Biosciences, Palo Alto, CA) and then transfected into HTC cells as previously described (22). The stable cell line was maintained in RPMI 1640 containing 10% heat-inactivated FBS, 100 U/ml penicillin, 100 μg/mL streptomycin, and 0.5 μg/mL puromycin and subcultured every 3-4 days. To measure transcriptional activation of the AvBD9 gene promoter in response to different epigenetic compounds, cells were seeded at 4×10^4 cells/well in white 96-well tissue culture plates and stimulated in duplicate with different compounds individually or in combination for 24 h. An equal amount of a solvent was applied as a negative control. Luciferase activity was measured using STEADY-GLO® Luciferase Assay System (Promega, Madison, WI) on an L-Max II luminescence microplate reader (Molecular Devices, Sunnyvale, CA). Cell viabilities were assessed by adding alamarBlue Reagent (ThermoFisher, Waltham, MA) to cell culture 4 h before luciferase assay. Relative luciferase activity was determined for each well after normalization to the cell viability as previously described (22).
# [5] = system: AvBD4; test: RT-qPCR of AvBD4 in HD11 macrophages; format: cell-based, chicken; conditions: HD11 cells, 5 μM compound with 2 mM butyrate, 24 h (FIG. 6, Panel C)
# Experimental: as §1, §2
# [6] = system: chicken HDP genes; test: RT-qPCR of multiple HDP genes in HTC cells; format: cell-based
# Experimental: as §1, §2
# [7] = system: AvBD8; test: RT-qPCR of AvBD8 in HTC cells; format: cell-based, chicken; conditions: 2 mM butyrate and at least one concentration of BIX01294, 24 h (FIG. 5)
# Experimental: as §1, §2
# [8] = system: AvBD9; test: RT-qPCR of AvBD9 in peripheral blood mononuclear cells (PBMCs); format: cell-based; conditions: chicken PBMCs, 24 h (FIG. 6, Panel F)
# Experimental: Isolation, culture, and stimulation of chicken peripheral blood mononuclear cells (PBMCs). Chicken PBMCs were isolated from EDTA-anticoagulated venous blood collected from 2- to 4-week-old broiler chickens through gradient centrifugation using Histopaque 1077 (Millipore Sigma) as previously described (22, 26). PBMCs were seeded at 3×10^7 cells/well in 6-well cell culture plates and stimulated with different concentrations of an HMTi or DNMTi with or without 1 mM butyrate for 24 h, followed by RNA isolation and HDP gene expression analysis as described below.
# Total RNA extraction and gene expression analysis. Total RNA was extracted using RNAzol (Molecular Biology Research Center, Cincinnati, OH) according to the manufacturer's protocol. Gene expression was performed using reverse transcription-quantitative PCR (RT-qPCR) as previously described (27-29). […] The cDNA was then diluted 10-fold with RNase-free water prior to real-time PCR using QuantiTect SYBR® Green PCR Kit (Qiagen, Valencia, CA) in 10-μl reactions using primers specific for HDP, barrier function, and inflammatory cytokine genes as described (27, 29, 30). […] The fold changes in gene expression in the cells treated with individual compounds or in combinations were calculated relative to the cells treated with an equal volume of RPMI 1640 or DMSO using the ΔΔCt method (31).
# [9] = system: AvBD10; test: RT-qPCR of AvBD10 in HD11 macrophages; format: cell-based, chicken; conditions: HD11 cells, 5 μM compound with 2 mM butyrate, 24 h (FIG. 6, Panel D)
# Experimental: as §1, §2
# [10] = system: IL-1β; test: RT-qPCR of IL-1β in HTC cells with or without LPS; format: cell-based, chicken
# Experimental: (§3) Culture and stimulation of macrophages. Two different chicken macrophage cell lines, HTC (24) and HD11 (25), were kindly provided by Dr. Narayan C. Rath and Dr. Hyun Lillehoj of USDA-ARS and maintained in RPMI 1640 containing 10% heat-inactivated FBS, 100 U/ml penicillin, and 100 μg/ml streptomycin and subcultured every 3-4 days. After overnight seeding at 1.5×10^6 cells/well in 6-well cell culture plates, cells were treated with different concentrations of each compound for 24 h or with the indicated concentration of each compound for various lengths of time for dose-response and time-course experiments, respectively. To study the synergy between HMTi/DNMTi and HDACi, different concentrations of an HMTi or DNMTi were added to the cells in the presence or absence of an HDACi for 24 h, followed by RNA isolation and HDP gene expression analysis as described below. HTC cells were also stimulated with butyrate, BIX01294, or their combination for 24 h, followed by 3-h stimulation with 10 ng/ml LPS and subsequent expression analysis.
# (§4) Total RNA extraction and gene expression analysis. Total RNA was extracted using RNAzol (Molecular Biology Research Center, Cincinnati, OH) according to the manufacturer's protocol. Gene expression was performed using reverse transcription-quantitative PCR (RT-qPCR) as previously described (27-29). Reverse transcription was performed with 300 ng of total RNA and Maxima® First Strand cDNA Synthesis Kit (ThermoFisher Scientific, Pittsburgh, PA). The cDNA was then diluted 10-fold with RNase-free water prior to real-time PCR using QuantiTect SYBR® Green PCR Kit (Qiagen, Valencia, CA) in 10-μl reactions using primers specific for HDP, barrier function, and inflammatory cytokine genes as described (27, 29, 30). PCR was run in CFX Connect Real-Time PCR System (Bio-Rad, Hercules, CA) using the following program: 95° C. for 10 min, followed by 40 cycles of 94° C. for 15 sec, 55° C. for 20 sec, and 72° C. for 30 sec. The specificity of PCR reactions was confirmed by the melting curve analysis. The glyceraldehyde-3-phosphate dehydrogenase (GAPDH) gene was used as the reference for data normalization. The fold changes in gene expression in the cells treated with individual compounds or in combinations were calculated relative to the cells treated with an equal volume of RPMI 1640 or DMSO using the ΔΔCt method (31).
# [11] = system: AvBD9; test: RT-qPCR of AvBD9 in HD11 macrophages; format: cell-based, chicken; conditions: HD11 cells, 5 μM compound with 2 mM butyrate, 24 h (FIG. 6, Panel A)
# Experimental: as §1, §2
# [12] = system: IL-8; test: RT-qPCR of IL-8 in HTC cells with or without LPS; format: cell-based, chicken
# Experimental: as §3, §4
compound,measurement,setting,value
COc1cc2nc(N3CCCN(C)CC3)nc(NC3CCN(Cc4ccccc4)CC3)c2cc1OC [BIX01294],"AvBD2 upregulation, combination with butyrate",[1],2- to 3 fold
same,"AvBD1 induction, combination with butyrate",[2],"synergistically induced, albeit at lower magnitudes"
same,"AvBD4 induction, combination with butyrate",[3],greater than 100 fold
same,activation of the AvBD9 gene promoter (relative luciferase activity),"[4]; compound alone, different concentrations, 24 h (FIG. 2, Panel A)",concentration-dependent activation
same,synergy in luciferase activity with butyrate,"[4]; different concentrations in combination with 2 mM butyrate, 24 h (FIG. 3)",marked dose-dependent increase in the synergy
same,"AvBD4 induction, combination with butyrate",[5],"synergistically induced, albeit at lower magnitudes"
same,"induction of the HDP genes detectable in HTC cells, combination with butyrate","[6]; BIX01294 with 2 mM butyrate, 24 h (FIG. 5)",all were synergistically induced
same,"induction of most other HDP genes, combination with HDACi","[6]; BIX01294 with any of the three HDACi (vorinostat, butyrate, mocetinostat), 24 h (FIG. 7, Panel B)",synergistically induced
same,"AvBD8 induction, combination with butyrate",[7],greater than 100 fold
same,AvBD9 induction,[8]; BIX01294 alone,induced AvBD9 in a dose-dependent manner
same,synergy in AvBD9 induction with butyrate,[8]; BIX01294 with 1 mM butyrate,obvious synergy
same,"AvBD10 induction, combination with butyrate",[9],"synergistically induced, albeit at lower magnitudes"
same,"effect on LPS-induced IL-1B expression, combination with butyrate","[10]; 5 μM BIX01294 + 2 mM butyrate 24 h, then 10 ng/ml LPS 3 h (FIG. 8, Panel D)",significant reduction
same,"IL-1β synthesis, combination with butyrate","[10]; 5 μM BIX01294 + 2 mM butyrate, without LPS (FIG. 8, Panel D)",tended to have a synergistic effect
same,effect on LPS-induced IL-1β expression,"[10]; compound alone 24 h, then 10 ng/ml LPS 3 h (FIG. 8, Panel D)",opposite effect
same,activity in inducing gene expression of IL-1β,"[10]; compound alone (2 mM butyrate or 5 μM BIX01294), without LPS (FIG. 8, Panel D)",no or weak activity
same,synergy in AvBD9 induction with butyrate,[11],drastic synergy
same,"LPS-induced IL-8 expression level, combination with butyrate","[12]; 5 μM BIX01294 + 2 mM butyrate 24 h, then 10 ng/ml LPS 3 h (FIG. 8, Panel E)",remained elevated
same,"IL-8 synthesis, combination with butyrate","[12]; 5 μM BIX01294 + 2 mM butyrate, without LPS (FIG. 8, Panel E)",tended to have a synergistic effect
same,effect on LPS-induced IL-8 expression,"[12]; compound alone 24 h, then 10 ng/ml LPS 3 h (FIG. 8, Panel E)",potentiated
same,activity in inducing gene expression of IL-8,"[12]; compound alone (2 mM butyrate or 5 μM BIX01294), without LPS (FIG. 8, Panel E)",no or weak activity
